Experiment [1] concerns the target Recombinant BRD4 (44-168) protein (Homo sapiens (Human), UniProt O60885). Briefly: BRD4-H4KAc4 binding assay (amplified luminescence proximity homogeneous assay, AlphaScreen). Particulars: 10 uM. The essentials:
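His/FLAG-tagged BRD4 (44-168) and biotinylated tetra-acetylated H4 peptide, each added as 250 nM solutions, incubated with compound 60 min at room temperature in the dark, then AlphaScreen beads 60 min. Emission 520-620 nm at 680 nm excitation, duplicates; % inhibition from blank- and DMSO-corrected signal.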

The subject of experiment [2] is NF-κB. Briefly: NF-κB reporter gene assay (TNF-α stimulated A549/NF-κB-luc cells). The format is cell-based. Particulars: Homo sapiens, TNF-α stimulation. On the procedure: In order to evaluate NF-κB inhibitory activity of the present compounds, NF-κB reporter gene assay was carried out. The specific method is described below.
Gene recombinant human TNF-α (available from R&D systems, Cat No. 210-TA) was dissolved in D-PBS(−) (available from Wako Pure Chemical Industries, Ltd., Cat No. 293-72601) to prepare 100 μg/mL of TNF-α solution stock solution. 100 μg/mL of the TNF-α solution stock solution was diluted with the culture medium to prepare 10 ng/mL of TNF-α solution.
A549/NF-κB-luc cells (available from Panomics, Cat No. LR0051) were prepared at 375,000 cells/mL in the culture medium. The 375,000 cells/mL A549/NF-κB-luc cell suspension was seeded at 80 μL each on a white 96-well plate (available from Greiner, Cat No. 655073). One hour after seeding the cells, 10 μL of 2% DMSO solution (control) and each compound solution in each concentration were added to each well of the 96-well plate. One hour after the addition of each compound solution, 10 ng/mL of the TNF-α solution (10 μL) was added to each well of the 96-well plate. Three hours after the addition of 10 ng/mL of the TNF-α solution, 100 μL of Steady-Glo reagent (available from Promega, Cat No. E2510) was added to each well of the 96-well plate. After 30 to 90 minutes of the addition of the Steady-Glo reagent, the luminescence intensity of each well was detected by EnVision multilabel counter (available from PerkinElmer).
NF-κB inhibition rate (%) was calculated by the following equation using Microsoft EXCEL 2010. NF-κB inhibition rate (%)=100−{(luminescence intensity average value of each compound added well)−(average value of luminescence intensity of blank well))/(average value of luminescence intensity of control well)−(average value of luminescence intensity of blank well)}×100 In addition, IC50 values were calculated from the calculated NF-κB inhibition rate (%) using curve fitting software XLfit (available from IDBS).

Molecules are shown by their SMILES.

Experimental findings from US11186588B2 (AYUMI PHARMACEUTICAL CORPORATION, priority 2017, dated 2021) are described below.

Usually inhibition stands for the percentage by which the read-out fell short of the control. A word on the IC50: it is the concentration that gives 50% inhibition. Higher therefore signals weaker potency in that assay. Regarding `Cc1sc2c(c1C)C(c1ccc(Cl)cc1)=NN(Cc1cccc(N(C)C)c1)c1nnc(C)n1-2` [Example 55, 3-((4-(4-chlorophenyl)-2,3,9-trimethyl-6H-thieno[2,3-e][1,2,4]triazolo[3,4-c][1,2,4]triazepin-6-yl)methyl)-N,N-dimethylaniline], the inhibition at 10 µM in experiment [1] is 100%. In experiment [2], this compound had an IC50 of 2760 nM.
Consider `CC(=O)Nc1cc(CN2N=C(c3ccc(Cl)cc3)c3c(sc(C)c3C)-n3c(C)nnc32)ccn1` [Example 56, N-(4-((4-(4-chlorophenyl)-2,3,9-trimethyl-6H-thieno[2,3-e][1,2,4]triazolo[3,4-c][1,2,4]triazepin-6-yl)methyl)pyridin-2-yl)acetamide], for which the inhibition at 10 µM in experiment [1] is 100%. Moreover, in experiment [2], the IC50 came out at 942 nM.
As for `Cc1sc2c(c1C)C(c1ccc(Cl)cc1)=NN(Cc1ccnc(N)c1)c1nnc(C)n1-2` [Example 57, 4-((4-(4-chlorophenyl)-2,3,9-trimethyl-6H-thieno[2,3-e][1,2,4]triazolo[3,4-c][1,2,4]triazepin-6-yl)methyl)pyridin-2-amine], the inhibition at 10 µM in experiment [1] worked out at 100%. In addition, the midpoint of inhibition in experiment [2], the IC50, lay at 558 nM.
The like results for `COc1ccc(CN2N=C(c3ccc(Cl)cc3)c3ccsc3-n3c(C)nnc32)cc1` [Example 58, 4-(4-chlorophenyl)-6-(4-methoxybenzyl)-9-methyl-6H-thieno[2,3-e][1,2,4]triazolo[3,4-c][1,2,4]triazepine] were, in that order, 100% and 728 nM.
Take `Cc1nnc2n1-c1sccc1C(c1ccc(Cl)cc1)=NN2Cc1ccccc1` [Example 60, 6-benzyl-4-(4-chlorophenyl)-9-methyl-6H-thieno[2,3-e][1,2,4]triazolo[3,4-c][1,2,4]triaz epine]: the inhibition at 10 µM in experiment [1] stood at 100%. In addition, inhibition in experiment [2] was half-maximal at 1690 nM (IC50).
Consider `Cc1nnc2n1-c1sccc1C(c1ccc(Cl)cc1)=NN2Cc1cccnc1` [Example 61, 4-(4-chlorophenyl)-9-methyl-6-(pyridin-3-ylmethyl)-6H-thieno[2,3-e][1,2,4]triazolo[3,4-c][1,2,4]triazepine], for which the inhibition at 10 µM in experiment [1] came to 100%. The compound also returned an IC50 in experiment [2] of 377 nM.
For the compound `Cc1nnc2n1-c1sccc1C(c1ccc(Cl)cc1)=NN2Cc1ccncc1` [Example 63, 4-(4-chlorophenyl)-9-methyl-6-(pyridin-4-ylmethyl)-6H-thieno[2,3-e][1,2,4]triazolo[3,4-c][1,2,4]triazepine], the inhibition at 10 µM in experiment [1] was found to be 100%. For the same compound, the IC50 in experiment [2] came out at 5240 nM.
As for `COc1cccc(CN2N=C(c3ccc(Cl)cc3)c3ccsc3-n3c(C)nnc32)c1` [Example 64, 4-(4-chlorophenyl)-6-(3-methoxybenzyl)-9-methyl-6H-thieno[2,3-e][1,2,4]triazolo[3,4-c][1,2,4]triazepine], the inhibition at 10 µM in experiment [1] is 100%. In addition, in experiment [2], it took 5490 nM to reach half-maximal inhibition (IC50).
With `COc1ccc(CN2N=C(c3ccc(Cl)cc3)c3cc(C)sc3-n3c(C)nnc32)cc1` [Example 65, 4-(4-chlorophenyl)-6-(4-methoxybenzyl)-2,9-dimethyl-6H-thieno[2,3-e][1,2,4]triazolo[3,4-c][1,2,4]triazepine], the inhibition at 10 µM in experiment [1] was 100%. The compound further came in with an IC50 in experiment [2] of 896 nM.
In the case of `Cc1sc2c(c1C)C(c1ccc([N+](=O)[O-])cc1)=NN(Cc1cccnc1)c1nnc(C)n1-2` [Example 70, 2,3,9-trimethyl-4-(4-nitrophenyl)-6-(pyridin-3-ylmethyl)-6H-thieno[2,3-e][1,2,4]triazolo[3,4-c][1,2,4]triazepine], the inhibition at 10 µM in experiment [1] amounted to 100%. In experiment [2], this compound registered an IC50 of 1830 nM.
The like results for `Cc1sc2c(c1C)C(c1cccc(Cl)c1)=NN(Cc1cccnc1)c1nnc(C)n1-2` [Example 73, 4-(3-chlorophenyl)-2,3,9-trimethyl-6-(pyridin-3-ylmethyl)-6H-thieno[2,3-e][1,2,4]triazolo[3,4-c][1,2,4]triazepine] were, in that order, 100% and 246 nM.
For `COc1ccccc1C1=NN(Cc2cccnc2)c2nnc(C)n2-c2sc(C)c(C)c21` [Example 74, 4-(2-methoxyphenyl)-2,3,9-trimethyl-6-(pyridin-3-ylmethyl)-6H-thieno[2,3-e][1,2,4]triazolo[3,4-c][1,2,4]triazepine], in that order: 100% and 2140 nM.
As for `COc1cccc(C2=NN(Cc3cccnc3)c3nnc(C)n3-c3sc(C)c(C)c32)c1` [Example 75, 4-(3-methoxyphenyl)-2,3,9-trimethyl-6-(pyridin-3-ylmethyl)-6H-thieno[2,3-e][1,2,4]triazolo[3,4-c][1,2,4]triazepine], the inhibition at 10 µM in experiment [1] turned out to be 100%. The compound also showed an IC50 in experiment [2] of 1930 nM.
In the case of `Cc1sc2c(c1C)C(c1ccc(Cl)cc1)=NN(Cc1cccnc1C#N)c1nnc(C)n1-2` [Example 77, 3-((4-(4-chlorophenyl)-2,3,9-trimethyl-6H-thieno[2,3-e][1,2,4]triazolo[3,4-c][1,2,4]triazepin-6-yl)methyl)picolinonitrile], in experiment [1], the inhibition at 10 µM came to 100%. Also, in experiment [2], the IC50 amounted to 1950 nM.
For `Cc1sc2c(c1C)C(c1ccc(Cl)cc1)=NN(Cc1cccnc1C(F)(F)F)c1nnc(C)n1-2` [Example 78, 4-(4-chlorophenyl)-2,3,9-trimethyl-6-((2-(trifluoromethyl)pyridin-3-yl)methyl)-6H-thieno[2,3-e][1,2,4]triazolo[3,4-c][1,2,4]triazepine], in that order: 100% and 1260 nM.
The like results for `Cc1sc2c(c1C)C(c1ccc(Cl)cc1)=NN(Cc1cccnc1Br)c1nnc(C)n1-2` [Example 79, 6-((2-bromopyridin-3-yl)methyl)-4-(4-chlorophenyl)-2,3,9-trimethyl-6H-thieno[2,3-e][1,2,4]triazolo[3,4-c][1,2,4]triazepine] were, in that order, 100% and 742 nM.
For `Cc1sc2c(c1C)C(c1ccc(Cl)cc1)=NN(Cc1cccnc1[N+](=O)[O-])c1nnc(C)n1-2` [Example 80, 4-(4-chlorophenyl)-2,3,9-trimethyl-6-((2-nitropyridin-3-yl)methyl)-6H-thieno[2,3-e][1,2,4]triazolo[3,4-c][1,2,4]triazepine], in that order: 100% and 1110 nM.
`Cc1sc2c(c1C)C(c1ccc(Cl)cc1)=NN(Cc1cccnc1N)c1nnc(C)n1-2` [Example 81, 3-((4-(4-chlorophenyl)-2,3,9-trimethyl-6H-thieno[2,3-e][1,2,4]triazolo[3,4-c][1,2,4]triazepin-6-yl)methyl)pyridin-2-amine]: the inhibition at 10 µM in experiment [1] stood at 100%. Also, in experiment [2], the IC50 was 47.2 nM.
`CC(=O)Nc1ncccc1CN1N=C(c2ccc(Cl)cc2)c2c(sc(C)c2C)-n2c(C)nnc21` [Example 82, N-(3-((4-(4-chlorophenyl)-2,3,9-trimethyl-6H-thieno[2,3-e][1,2,4]triazolo[3,4-c][1,2,4]triazepin-6-yl)methyl)pyridin-2-yl)acetamide]: in experiment [1], the inhibition at 10 µM was 100%. This compound displayed an IC50 in experiment [2] of 135 nM.
As for `COC(=O)c1ncccc1CN1N=C(c2ccc(Cl)cc2)c2c(sc(C)c2C)-n2c(C)nnc21` [Example 83, methyl 3-((4-(4-chlorophenyl)-2,3,9-trimethyl-6H-thieno[2,3-e][1,2,4]triazolo[3,4-c][1,2,4]triazepin-6-yl)methyl)picolinate], the inhibition at 10 µM in experiment [1] stood at 100%. The IC50 in experiment [2] amounted to 2820 nM.
For `Cc1sc2c(c1C)C(c1ccc(Cl)cc1)=NN(Cc1cccnc1CO)c1nnc(C)n1-2` [Example 86, (3-((4-(4-chlorophenyl)-2,3,9-trimethyl-6H-thieno[2,3-e][1,2,4]triazolo[3,4-c][1,2,4]triazepin-6-yl)methyl)pyridin-2-yl)methanol], in that order: 100% and 95.3 nM.
With `CCOc1ncccc1CN1N=C(c2ccc(Cl)cc2)c2c(sc(C)c2C)-n2c(C)nnc21` [Example 87, 4-(4-chlorophenyl)-6-((2-ethoxypyridin-3-yl)methyl)-2,3,9-trimethyl-6H-thieno[2,3-e][1,2,4]triazolo[3,4-c][1,2,4]triazepine], the inhibition at 10 µM in experiment [1] was found to be 100%. In addition, in experiment [2], the IC50 turned out to be 1390 nM.
`Cc1sc2c(c1C)C(c1ccc(Cl)cc1)=NN(Cc1cc(F)cnc1F)c1nnc(C)n1-2` [Example 88, 4-(4-chlorophenyl)-6-((2,5-difluoropyridin-3-yl)methyl)-2,3,9-trimethyl-6H-thieno[2,3-e][1,2,4]triazolo[3,4-c][1,2,4]triazepine]: the inhibition at 10 µM in experiment [1] came to 100%. Also, the IC50 in experiment [2] was 631 nM.
